Consider two compounds from PMC8151276, “An Integrated Approach toward NanoBRET Tracers for Analysis of GPCR Ligand Engagement” (Molecules, 2021).

What all share (assay type): binding
In one test the target is T1, ADRA2C (Homo sapiens, UniProt P18825).
T1 construct: purchased Promega (in-house HiBiT-GPCR construct library, NanoBRET)
T1 sequence (P18825 1-462): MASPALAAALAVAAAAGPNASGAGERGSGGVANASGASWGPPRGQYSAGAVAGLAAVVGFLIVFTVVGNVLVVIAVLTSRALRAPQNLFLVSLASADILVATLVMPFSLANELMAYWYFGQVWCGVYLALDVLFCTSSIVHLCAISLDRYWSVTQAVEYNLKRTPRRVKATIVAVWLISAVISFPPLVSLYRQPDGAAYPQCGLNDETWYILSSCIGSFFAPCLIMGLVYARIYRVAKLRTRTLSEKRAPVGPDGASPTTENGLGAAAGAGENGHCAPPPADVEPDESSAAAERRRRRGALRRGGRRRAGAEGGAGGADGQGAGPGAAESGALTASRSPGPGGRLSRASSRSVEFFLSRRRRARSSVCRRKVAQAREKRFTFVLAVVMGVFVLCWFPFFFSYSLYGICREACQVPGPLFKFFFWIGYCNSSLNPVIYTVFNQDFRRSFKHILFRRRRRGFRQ
Briefly: NanoBRET screen HiBiT-ADRA2C in HEK293. As to conditions: ADRA2C. An outline of the steps: (§1)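 Cells (HEK293, transfected 18–20 h earlier with HiBiT-GPCR plus promoterless DNA) received tracer at two final levels, 1 μM and 0.1 μM. Specificity came from BRET loss when 20 μM parental compound competed; ratio ≥1.5 called a hit.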
In general terms: BRET reads energy transfer from a luciferase to a nearby fluorophore.

In another test the target is T2, OXER1 (Homo sapiens, UniProt Q8TDS5).
T2 construct: purchased Promega (in-house HiBiT-GPCR construct library, NanoBRET)
T2 sequence (Q8TDS5 whole entry): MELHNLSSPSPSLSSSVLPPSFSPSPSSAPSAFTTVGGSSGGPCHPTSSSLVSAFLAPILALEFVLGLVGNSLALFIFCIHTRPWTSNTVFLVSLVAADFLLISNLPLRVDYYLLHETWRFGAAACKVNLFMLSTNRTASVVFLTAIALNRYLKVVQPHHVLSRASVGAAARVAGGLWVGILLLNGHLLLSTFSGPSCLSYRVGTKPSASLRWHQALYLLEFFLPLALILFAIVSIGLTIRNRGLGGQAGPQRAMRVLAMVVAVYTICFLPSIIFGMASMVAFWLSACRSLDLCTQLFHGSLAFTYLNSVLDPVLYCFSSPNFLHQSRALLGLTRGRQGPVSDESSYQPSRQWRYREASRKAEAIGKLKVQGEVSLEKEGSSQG
Briefly: NanoBRET screen HiBiT-OXER1 in HEK293. Particulars: OXER1. An outline of the steps: as §1

The next test concerns the target T3, GRPR (Homo sapiens, UniProt P30550).
T3 construct: purchased Promega (in-house HiBiT-GPCR construct library, NanoBRET)
Briefly: NanoBRET screen HiBiT-GRPR in HEK293. Particulars: GRPR. The method, boiled down: as §1

The next test deals with T4, BDKRB2 (Homo sapiens, UniProt P30411).
T4 construct: purchased Promega (in-house HiBiT-GPCR construct library, NanoBRET)
T4 sequence (P30411 1-391): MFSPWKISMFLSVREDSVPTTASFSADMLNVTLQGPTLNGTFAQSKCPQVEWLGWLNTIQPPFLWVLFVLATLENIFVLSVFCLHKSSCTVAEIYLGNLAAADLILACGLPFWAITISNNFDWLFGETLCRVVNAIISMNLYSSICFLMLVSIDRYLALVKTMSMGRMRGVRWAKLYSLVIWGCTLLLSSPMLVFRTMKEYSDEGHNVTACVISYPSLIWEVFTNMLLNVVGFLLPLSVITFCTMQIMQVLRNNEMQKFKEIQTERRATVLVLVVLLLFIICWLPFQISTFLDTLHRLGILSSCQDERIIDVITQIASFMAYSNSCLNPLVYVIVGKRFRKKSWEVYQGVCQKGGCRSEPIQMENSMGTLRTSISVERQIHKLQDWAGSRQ
Description: NanoBRET screen HiBiT-BDKRB2 in HEK293. Particulars: BDKRB2. An outline of the steps: as §1

The target of the next test is T5, MLNR (Homo sapiens, UniProt O43193).
T5 construct: purchased Promega (in-house HiBiT-GPCR construct library, NanoBRET)
T5 sequence (O43193 whole entry): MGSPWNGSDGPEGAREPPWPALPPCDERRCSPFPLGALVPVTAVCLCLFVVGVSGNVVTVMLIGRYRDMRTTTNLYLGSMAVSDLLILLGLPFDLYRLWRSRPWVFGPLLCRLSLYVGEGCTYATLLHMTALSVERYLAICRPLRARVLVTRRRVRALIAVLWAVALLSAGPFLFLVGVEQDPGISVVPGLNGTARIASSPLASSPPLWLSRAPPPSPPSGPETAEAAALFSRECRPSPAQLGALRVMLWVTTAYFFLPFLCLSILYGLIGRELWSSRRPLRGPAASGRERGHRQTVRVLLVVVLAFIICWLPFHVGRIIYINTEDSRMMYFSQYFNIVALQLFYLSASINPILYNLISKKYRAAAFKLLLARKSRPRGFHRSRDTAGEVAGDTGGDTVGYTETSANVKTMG
Briefly: NanoBRET screen HiBiT-MLNR in HEK293. Particulars: MLNR. An outline of the steps: as §1

Another test concerns the target T6, NPFFR2 (Homo sapiens, UniProt Q9Y5X5).
T6 construct: purchased Promega (in-house HiBiT-GPCR construct library, NanoBRET)
Description: NanoBRET screen HiBiT-NPFFR2 in HEK293. Particulars: NPFFR2. The method, boiled down:
as §1

T3 sequence (P30550 whole entry): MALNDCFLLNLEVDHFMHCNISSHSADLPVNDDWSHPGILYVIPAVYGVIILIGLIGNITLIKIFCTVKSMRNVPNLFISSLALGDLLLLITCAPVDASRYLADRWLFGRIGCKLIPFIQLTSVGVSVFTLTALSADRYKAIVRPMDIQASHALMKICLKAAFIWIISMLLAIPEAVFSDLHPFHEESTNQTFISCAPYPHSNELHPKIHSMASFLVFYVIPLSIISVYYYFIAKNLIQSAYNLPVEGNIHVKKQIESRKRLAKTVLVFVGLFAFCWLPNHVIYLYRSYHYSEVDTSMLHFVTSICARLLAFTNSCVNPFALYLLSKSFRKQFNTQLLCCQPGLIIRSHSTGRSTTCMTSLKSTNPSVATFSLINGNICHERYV
T6 sequence (Q9Y5X5 whole entry): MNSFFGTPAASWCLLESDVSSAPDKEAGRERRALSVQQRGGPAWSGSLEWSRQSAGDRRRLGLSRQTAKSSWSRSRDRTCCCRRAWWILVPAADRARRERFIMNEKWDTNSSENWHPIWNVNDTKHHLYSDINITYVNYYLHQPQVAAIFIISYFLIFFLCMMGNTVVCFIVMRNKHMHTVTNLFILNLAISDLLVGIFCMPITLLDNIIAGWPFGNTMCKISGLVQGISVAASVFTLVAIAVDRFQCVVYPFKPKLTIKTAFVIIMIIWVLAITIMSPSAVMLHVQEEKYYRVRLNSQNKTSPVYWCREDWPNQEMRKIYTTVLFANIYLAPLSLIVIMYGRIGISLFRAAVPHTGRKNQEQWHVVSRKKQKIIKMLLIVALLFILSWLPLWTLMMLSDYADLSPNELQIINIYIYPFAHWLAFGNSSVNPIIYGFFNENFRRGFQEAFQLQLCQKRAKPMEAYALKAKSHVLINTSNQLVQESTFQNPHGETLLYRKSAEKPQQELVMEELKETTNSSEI

With `CCCn1c(=O)c2[nH]c(-c3ccc(OCC(=O)NCCNC(=O)CCOCCNC(=O)c4ccc(CNC(=O)CCc5ccc6n5[B-](F)(F)[N+]5=C(c7ccc[nH]7)C=CC5=C6)cc4)cc3)nc2n(CCC)c1=O` [XAC-3-NB590], the “NanoBRET Fold Response” value on ADRA2C (tracer 0.1μM) came out at 0.77; at ADRA2C (tracer 1μM) it was 1.20; on OXER1 (tracer 0.1μM), 1.04; on OXER1 (tracer 1μM) it was 0.96; on GRPR (tracer 0.1μM), 1.24; on GRPR (tracer 1μM), 1.01. The “NanoBRET Fold Response” value is given as 1.00 at BDKRB2 (tracer 0.1μM); 1.14 at BDKRB2 (tracer 1μM); 0.99 on MLNR (tracer 0.1μM); 0.91 at MLNR (tracer 1μM); 1.02 at NPFFR2 (tracer 0.1μM); 1.02 at NPFFR2 (tracer 1μM).
As for `CCOC(=O)c1cc(C#N)c(N2CCC(C(=O)NS(=O)(=O)Cc3ccccc3/C=C/C(=O)NCCNC(=O)CCc3ccc4n3[B-](F)(F)[N+]3=C(c5ccc[nH]5)C=CC3=C4)CC2)nc1C` [AZD1283-1-NB590], the “NanoBRET Fold Response” value was 1.05 at ADRA2C (0.1μM); 1.04 at ADRA2C (1μM); 0.50 on OXER1 (0.1μM); 1.03 at OXER1 (1μM); 1.01 on GRPR (0.1μM); 1.01 on GRPR (1μM). Moreover, the “NanoBRET Fold Response” value on BDKRB2 (0.1μM) was 1.06; on BDKRB2 (1μM), 1.04; at MLNR (0.1μM) it was 1.06; at MLNR (1μM), 1.01; on NPFFR2 (0.1μM), 1.01; on NPFFR2 (1μM), 1.15.
